A value given as a limit tells only on which side of the number the result lay.

Ki data for 22 molecules are collected here from patent EP2970215B1, “PYRROLIDINE DERIVATIVES, PHARMACEUTICAL COMPOSITIONS CONTAINING THEM, AND THEIR USE IN THERAPY” (AbbVie Deutschland GmbH & Co. KG, priority 2013, dated 2014).

The first assay addresses T1, human GlyT1c transporter (Homo sapiens, UniProt P48067).
T1 construct: expressed in transfected cells; host or cells: CHO cells (recombinant; line hGlyT1c_5_CHO is named for the uptake assay)
T1 sequence (P48067 1-706): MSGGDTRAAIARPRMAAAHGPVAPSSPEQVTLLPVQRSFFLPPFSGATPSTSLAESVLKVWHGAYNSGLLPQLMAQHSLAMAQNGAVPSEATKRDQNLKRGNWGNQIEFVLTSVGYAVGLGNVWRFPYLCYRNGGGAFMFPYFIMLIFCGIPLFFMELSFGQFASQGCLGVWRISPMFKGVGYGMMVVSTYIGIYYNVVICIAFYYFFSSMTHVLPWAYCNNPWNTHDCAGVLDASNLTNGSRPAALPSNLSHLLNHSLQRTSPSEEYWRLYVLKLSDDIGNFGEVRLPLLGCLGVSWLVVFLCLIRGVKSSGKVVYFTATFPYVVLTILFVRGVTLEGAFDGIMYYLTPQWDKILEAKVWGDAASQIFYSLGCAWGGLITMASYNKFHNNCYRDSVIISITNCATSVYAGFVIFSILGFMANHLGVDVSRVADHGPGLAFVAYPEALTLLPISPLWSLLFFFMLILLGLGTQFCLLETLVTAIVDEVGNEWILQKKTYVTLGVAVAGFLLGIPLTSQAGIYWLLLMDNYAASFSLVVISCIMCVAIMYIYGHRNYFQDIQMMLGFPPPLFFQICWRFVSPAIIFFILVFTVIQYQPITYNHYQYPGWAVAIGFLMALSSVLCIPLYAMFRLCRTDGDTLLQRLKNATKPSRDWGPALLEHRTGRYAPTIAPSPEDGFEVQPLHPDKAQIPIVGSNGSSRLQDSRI
Description: Radioligand binding assay using recombinant CHO cell membranes expressing human GlyT1. The note with it: radioligand binding to human GlyT1c transporter-expressing membranes. The source says:
2. Radioligand binding assays using recombinant CHO cell membranes expressing human GlyT1: […]
Usually Ki stands for a dissociation constant, usually derived from enzyme kinetics or from competition with a known ligand. Take `Cn1cnc(S(=O)(=O)N2C[C@H](Nc3cccc(C(C)(O)C(F)(F)F)c3)[C@@H](c3ccc(F)cc3)C2)c1` (stereo partly drawn) [Example 392, 1,1,1-trifluoro-2-[3-({(3R,4S)-4-(4-fluorophenyl)-1-[(1-methyl-1H-imidazol-4-yl)sulfonyl]pyrrolidin-3-yl}amino)phenyl]propan-2-ol]: the inhibition constant Ki is no more than 0.1 µM. Consider `COCCCNC[C@@H]1CN(S(=O)(=O)c2cn(C)cn2)C[C@H]1c1ccc(F)cc1` (relative stereo) [Example 597, N-({trans-4-(4-fluorophenyl)-1-[(1-methyl-1H-imidazol-4-yl)sulfonyl]pyrrolidin-3-yl}methyl)-3-methoxypropan-1-amine], for which the Ki is no more than 10 µM.

Turning to `O=S(=O)(c1ccc2c(c1)OCO2)N1CC(Nc2ccc(F)c(F)c2)C(c2ccccc2)C1` (stereo not shown) [Example 495, 1-(1,3-benzodioxol-5-ylsulfonyl)-N-(3,4-difluorophenyl)-4-phenylpyrrolidin-3-amine], the Ki was greater than 10 µM. As for `Cn1cnc(S(=O)(=O)N2C[C@@H](NCc3ccc(Cl)cc3Cl)[C@H](c3ccccc3Cl)C2)c1` (relative stereo) [Example 284, trans-4-(2-chlorophenyl)-N-(2,4-dichlorobenzyl)-1-[(1-methyl-1H-imidazol-4-yl)sulfonyl]pyrrolidin-3-amine], the Ki was no more than 0.1 µM. On the same count and under the same terms, then `Cn1cnc(S(=O)(=O)N2C[C@H](Nc3ccc4ccsc4c3)[C@@H](c3ccc(F)cc3)C2)c1` [Example 677, (3R,4S)-N-(1-benzothiophen-6-yl)-4-(4-fluorophenyl)-1-[(1-methyl-1H-imidazol-4-yl)sulfonyl]pyrrolidin-3-amine], with no more than 1 µM; and `Cn1cnc(S(=O)(=O)N2C[C@H](Nc3ncc(F)cn3)[C@@H](c3ccccc3)C2)c1` [Example 424, 5-fluoro-N-{(3R,4S)-1-[(1-methyl-1H-imidazol-4-yl)sulfonyl]-4-phenylpyrrolidin-3-yl}pyrimidin-2-amine], with no more than 1 µM. `Cn1cnc(S(=O)(=O)N2C[C@@H](Nc3ccc(F)c(F)c3)[C@H](c3ncco3)C2)c1` (relative stereo) [Example 709, Trans-N-[3,4-difluorophenyl]-1-[(1-methyl-1H-imidazol-4-yl)sulfonyl]-4-(1,3-oxazol-2-yl)pyrrolidin-3-amine]: the Ki is no more than 10 µM. On to `Cn1cnc(S(=O)(=O)N2C[C@@H](C(=O)Nc3ccc(F)cc3)[C@H](c3ccc(F)cc3)C2)c1` (relative stereo) [Example 358, Trans-N,4-bis(4-fluorophenyl)-1-[(1-methyl-1H-imidazol-4-yl)sulfonyl]pyrrolidine-3-carboxamide], for which the Ki is no more than 0.1 µM.

For `CCOCCCN[C@H]1CN(S(=O)(=O)c2cn(C)cn2)C[C@@H]1c1ccccc1` [Example 589, (3R,4S)-N-(3-ethoxypropyl)-1-[(1-methyl-1H-imidazol-4-yl)sulfonyl]-4-phenylpyrrolidin-3-amine], the Ki was no more than 1 µM.

`Cc1nc(S(=O)(=O)N2C[C@H](Nc3ccc(F)c(F)c3)[C@@H](c3ccc(F)cc3)C2)cn1C` [Example 755, (3R,4S)-N-(3,4-difluorophenyl)-1-[(1,2-dimethyl-1H-imidazol-4-yl)sulfonyl]-4-(4-fluorophenyl)pyrrolidin-3-amine]: the Ki was no less than 10 µM. Same read-out and setting: the value for `CCS(=O)(=O)N1C[C@@H](NC(=O)c2cc(Cl)cc(Cl)c2)[C@H](c2ccccc2)C1` (relative stereo) [Example 123, 3,5-dichloro-N-[trans-1-(ethylsulfonyl)-4-phenylpyrrolidin-3-yl]benzamide] was no more than 10 µM; that for `Cn1cnc(S(=O)(=O)N2C[C@@H](OCc3ccc(S(C)(=O)=O)cc3)[C@H](c3ccc(F)cc3)C2)c1` (relative stereo) [Example 713, 4-{[trans-3-(4-fluorophenyl)-4-{[4-(methylsulfonyl)benzyl]oxy}pyrrolidin-1-yl]sulfonyl}-1-methyl-1H-imidazole] was greater than 10 µM; that for `Cc1nc(Cl)cc(N[C@H]2CN(S(=O)(=O)c3cn(C)cn3)C[C@@H]2c2ccc(F)cc2)n1` [Example 690, 6-chloro-N-{(3R,4S)-4-(4-fluorophenyl)-1-[(1-methyl-1H-imidazol-4-yl)sulfonyl]pyrrolidin-3-yl}-2-methylpyrimidin-4-amine] was no more than 1 µM. `Cn1cnc(S(=O)(=O)N2C[C@@H](Nc3ccc(F)cc3)[C@H](c3ccccc3F)C2)c1` (relative stereo) [Example 200, trans-4-(2-fluorophenyl)-N-(4-fluorophenyl)-1-[(1-methyl-1H-imidazol-4-yl)sulfonyl]pyrrolidin-3-amine]: the Ki is no more than 1 µM. On to `Cn1cnc(S(=O)(=O)N2C[C@@H](CO)[C@H](c3ccc(F)cc3)C2)c1` (relative stereo) [Example 206, {Trans-4-(4-fluorophenyl)-1-[(1-methyl-1H-imidazol-4-yl)sulfonyl]pyrrolidin-3-yl}methanol], for which the Ki is no more than 10 µM. As for `Cn1cnc(S(=O)(=O)N2C[C@H](NC(=O)Nc3cccc(F)c3)[C@@H](c3ccc(F)cc3)C2)c1` [Example 703, 1-(3-fluorophenyl)-3-{(3R,4S)-4-(4-fluorophenyl)-1-[(1-methyl-1H-imidazol-4-yl)sulfonyl]pyrrolidin-3-yl}urea], the inhibition constant Ki is no more than 1 µM.

On to `Cn1cnc(S(=O)(=O)N2C[C@@H](Nc3cc(F)c(F)c(Cl)c3)[C@H](c3ccccc3)C2)c1` (relative stereo) [Example 219, trans-N-(3-chloro-4,5-difluorophenyl)-1-[(1-methyl-1H-imidazol-4-yl)sulfonyl]-4-phenylpyrrolidin-3-amine], for which the Ki is no more than 10 µM.

Consider `N#Cc1ccccc1S(=O)(=O)N1C[C@@H](Nc2ccc(F)cc2)[C@H](c2ccccc2)C1` (relative stereo) [Example 529, 2-({Trans-3-[(4-fluorophenyl)amino]-4-phenylpyrrolidin-1-yl}sulfonyl)benzonitrile], for which the Ki was no more than 10 µM. On to `Cn1cnc(S(=O)(=O)N2C[C@@H](Nc3ccc(F)c(Cl)c3)[C@H](c3ccccc3)C2)c1` (relative stereo) [Example 215, trans-N-(3-chloro-4-fluorophenyl)-1-[(1-methyl-1H-imidazol-4-yl)sulfonyl]-4-phenylpyrrolidin-3-amine], for which the Ki is no more than 0.1 µM. As for `Cn1cnc(S(=O)(=O)N2C[C@@H](NC(=O)c3ccccc3C(F)(F)F)[C@H](c3ccccc3)C2)c1` (relative stereo) [Example 35, N-{trans-1-[(1-methyl-1H-imidazol-4-yl)sulfonyl]-4-phenylpyrrolidin-3-yl}-2-(trifluoromethyl)benzamide], the Ki is no more than 10 µM.

With `Cn1cnc(S(=O)(=O)N2C[C@H](NCC3(C)CCOCC3)[C@@H](c3ccccc3)C2)c1` [Example 429, (3R,4S)-1-[(1-methyl-1H-imidazol-4-yl)sulfonyl]-N-[(4-methyltetrahydro-2H-pyran-4-yl)methyl]-4-phenylpyrrolidin-3-amine], the Ki was greater than 10 µM.

Still in this assay, the particulars now being: radioligand binding, recombinant CHO cell membranes expressing human GlyT1c.
With `Cn1cnc(S(=O)(=O)N2C[C@@H](Nc3ccc(F)c(Cl)c3)[C@H](C3CCCCO3)C2)c1` (relative stereo) [Example 815, Trans-N-(3-chloro-4-fluorophenyl)-1-[(1-methyl-1H-imidazol-4-yl)sulfonyl]-4-(tetrahydro-2H-pyran-2-yl)pyrrolidin-3-amine], the Ki was no more than 0.1 µM.
